Experimental data from patent publication US20230235283A1, “CULTURE MEDIUM FOR ESOPHAGEAL SQUAMOUS CELL CARCINOMA EPITHELIAL CELLS, CULTURE METHOD, AND APPLICATION THEREOF” (PRECEDO PHARMACEUTICALS CO., LTD, priority 2020, published 2023).

What was measured:
Type in all cases: cell-based, human
[1] = tested on: ESCC tumor cells (No. 0F0064); experiment: Effects of different factors added to basic medium BM on proliferation of primary ESCC cells (cell count); conditions: factor added to BM at concentrations of Table 3; 12 days of culture; FIGS. 1A-1E
Description: (§1) Extracellular matrix gel (Matrigel®) (manufactured by BD Biosciences) was diluted at 1:100 in serum-free DMEM/F12 medium to prepare an extracellular matrix dilution, which was added to a 48-well culture plate with 500 μl/well to completely cover the bottom of the wells of the culture plate. The resultant was let stand for 1 hour in a 37° C. incubator. After 1 hour, the extracellular matrix dilution was removed to provide a Matrigel-coated plate.
Preparation of basic medium (abbreviated as BM): BM was prepared by adding 0.2 vol. % of Primocin (purchased from Invivogen, with a concentration of 50 mg/mL) to the commercial DMEM/F-12 medium to provide a final concentration of 100 μg/mL.
Next, different kinds and concentrations of additive factors (Table 3) were added to the basic medium (BM), so as to prepare culture mediums for ESCC epithelial cells containing different additive components.
The culture mediums with different components were added at a volume of 500 μl/well to 48-well plates which were coated with extracellular matrix gel (Matrigel). ESCC tumor cells (No. 0F0064) isolated from ESCC tissue according to the same method described in Example 1 were inoculated in a Matrigel-coated 48-well culture plate at a cell density of 2×10^4 cells/cm^2. After surface disinfection, the plate was placed in a 37° C., 5% CO2 incubator (purchased from Thermo Fisher), such that equal numbers of freshly isolated ESCC tumor cells (No. 0F0064) were cultured under different medium formulations. The culture mediums were renewed every 4 days after the start of the culture. After 12 days of culture, cell counts were performed. As an experiment control, the basis medium (BM) without any additive was used. The ordinate in each figure represents the ratio of the number of cells obtained after culture in different mediums to the number of cells obtained after culture in basic medium BM. As shown in the figures, the addition of different concentrations of different factors as shown in Table 3 to BM has different effects on cell proliferation.

[2] = tested on: primary ESCC tumor cells (No. 0F0061); experiment: Effects of removing single factor or combination of factors from FEM on continuous expansion of primary ESCC cells; conditions: continuous culture, third passage; FIG. 12 and FIG. 13
Description: The culture medium for primary ESCC epithelial cell FEM was prepared in the same method of Example 2. As a control, a basic medium (hereinafter also referred to as “BM”) was prepared using the same method of Example 2. In addition, six other different culture mediums were prepared according to Table 9.
ESCC tissue-originated primary ESCC tumor cells (No. 0F0061) were obtained by using the same method as in Example 1. Then, the primary ESCC tumor cells were inoculated in a Matrigel® (manufactured by BD Biosciences)-coated 24-well plate at a density of 4×10^4 cells/cm^2. 1 mL of the culture medium for primary ESCC epithelial cells (FEM) of the invention was used, which was then placed in a 37° C., 5% CO2 incubator (purchased from Thermo Fisher) for culture.
When the cells in the culture plate grew to cover about 80% of the bottom area, the medium supernatant in the 24-well plate was discarded and 400 μL 0.05% trypsin (purchased from Gibco) was added for cell digestion; the cells were incubated at 37° C. for 10 minutes until the cells were completely digested as observed under the microscope (EVOS M500, Invitrogen); then the digestion was terminated by using 800 μL of DMEM/F12 culture solution containing 5% (v/v) fetal bovine serum, 100 U/mL penicillin, and 100 μg/mL penicillin; the resultant was collected into a 15 mL centrifuge tube and centrifuged at 1500 rpm for 4 minutes, and then the supernatant was discarded. The centrifuged cell sediments were resuspended in the culture medium of the invention and were counted with a flow imaging counter (JIMBIO FIL, Jiangsu Jimbio Technology Co., Ltd.) to obtain the total number of cells. The cells were incubated into another 24-well culture plate coated with extracellular matrix gel at a density of 2×10^4 cells/cm^2 for further culture. The cells were inoculated into the 24-well culture plate coated with extracellular matrix gel at the same density using other seven different mediums for culture.
When the passaged cells grew in the culture plate to cover about 80% of the bottom area of the plate again, the cultured cells were digested, collected and counted according to the above operating method. The cells were inoculated at a density of 2×10^4 cells/cm^2 again and cultured continuously using the respective culture mediums of different compositions.
The following is the formula for calculating the cell population doubling number of primary ESCC epithelial cells under different culture conditions:
Population Doubling (PD)=3.32*log10 (total number of digested cells/the number of cells at initial inoculation), see Chapman et al., Stem Cell Research & Therapy 2014, 5: 60. […]

[3] = tested on: ESCC tumor cells (Sample No. 0F0065); experiment: Effects of different concentrations of the additive factors in FEM on proliferation of primary ESCC cells; conditions: factor added back to FEM lacking it; first passage; FIGS. 3A-3H; preferably
Description: as §1, with “plate with 200 μl/well to” for “plate with 500 μl/well to”, “Matrigel-coated plate. […]” for “Matrigel-coated plate.”
ESCC epithelial cells originated from cancer tissue were isolated and obtained from the cancer tissue of an ESCC patient (Sample No. 0F0065) using the same method as in Example 1. Next, ESCC tumor cells originated from cancer tissue were counted with a flow imaging counter (JIMBIO FIL, Jiangsu Jimbio Technology Co., Ltd.) to obtain the total number of cells. […] The centrifuged cell sediments were resuspended in the basic medium BM and were counted with a flow imaging counter (JIMBIO FIL, Jiangsu Jimbio Technology Co., Ltd.) to obtain the total number of cells. […]

Row | Molecule | effect on cell proliferation (ratio of number of cells to that in basic medium BM) [1] | proliferation effect of cells after removal of the component from FEM [2] | amount in the culture medium, preferable (proliferation ratio to control well) [3] [ng/mL]
1 | CN1C(=O)C(c2c(F)cccc2F)N(C)c2nc(Nc3ccc(S(N)(=O)=O)cc3)ncc21 (stereo not shown) [Compound 1, 4-((7-(2,6-difluorophenyl)-5,8-dimethyl-6-oxo-5,6,7,8-tetrahydropteridin-2-yl)amino)benzsulfamide] | promoting effects on cell proliferation | significantly attenuated | 
2 | Cc1cccc(-c2nn(C(=S)Nc3ccccc3)cc2-c2ccnc3ccccc23)n1 [Compound A83-01] |  | significantly attenuated | 
3 | C[C@@H](N)[C@H]1CC[C@H](C(=O)Nc2ccncc2)CC1 [Compound Y27632, reference compound] | promoting effects on cell proliferation | significantly attenuated | 
4 | Oc1ccc(-c2nc(-c3ccncc3)c(-c3ccc(F)cc3)[nH]2)cc1 [SB202190] |  | significantly attenuated | 
5 | epidermal growth factor: growth factor from Sino Biological (NSDSECPLSHDGYCLHDGVCMYIEALDKYACNCVVGYIGERCQYRDLKWWELR; Epidermal growth factor; UniProt P01133 971-1023, looked up) | promoting effects on cell proliferation |  | 
6 | hepatocyte growth factor: growth factor from Sino Biological | promoting effects on cell proliferation |  | 2.5 to 20
7 | insulin-like growth factor 1: growth factor from Sino Biological | promoting effects on cell proliferation |  | 
